According to patent US11944090B2, “Compositions and methods for attracting fire ants” (The United States of America, as represented by The …, priority 2021, dated 2024):
Several values for one entry are separate records, joined by “and”; a condition that tells them apart may be missing. Identical values can stand only once. Entries after “also recorded” stand apart in the source; their conditions may differ.

Experiments:
fire ants [1] = test: Field paired two-choice feeding bioassay (soybean oil consumption); assay type: in vivo, Solenopsis invicta
Method: (§1) Multiple-choice and a paired two-choice bioassays were used in this study. A schematic representation of the bioassay set-ups is depicted in FIG. 19. Soybean oil was used as a food source for all the bioassays (Great Value, purchased from Walmart in Greenville Mississippi). The feeding apparatus was a filtered 1-ml pipette tip with the part 0.5 cm below the filter removed. In multiple-choice bioassays, four to six concentrations of tested compounds were tested with untreated soybean oil as a control, and in two-choice bioassays, the compound at certain concentration was tested against the control oil or oil treated with known fire ant attractant. Eighty microliter soybean oil was loaded onto each filter. After being weighed, the apparatuses with oil were placed in the field for about 2 hours. The apparatuses were then collected and frozen under −40° C. to kill all ants. The apparatuses were weighed again after all ants were removed from the apparatuses. The difference in the weight of apparatuses before and after the feeding bioassays was the oil consumption. There were six to 10 replicates for each bioassay. Feeding sites were at least 10 m away from each other. The difference in oil consumption among/between treatment and control apparatuses was used to evaluate the effect of tested compound on the feeding of fire ants. For multiple-choice bioassays, a one-way ANOVA was performed to compare the effect of different concentrations of tested compound on the percentage of oil consumption. Tukey's HSD test was used for multiple comparisons. A paired t test was used in statistical analysis for the two-choice bioassays.
Five oxo fatty acid analogs were tested in the filed using two-choice or multiple-choice bioassays. Tested were 8-oxo-decanoic acid, 9-oxo-2-decenoic acid, 9-oxo-decanoic acid, 11-oxo-tridecanoic acid, and 12-oxo-tetradecanoic acid. Eight oxo-decanoic acid was tested in a multiple-choice bioassay at 6 different concentrations including 0.00 mg/g, 0.81 mg/g, 0.41 mg/g, 0.20 mg/g, 0.10 mg/g, and 0.05 mg/g. There were 10 replicates for the bioassay. For 9-oxo-2-decenoic acid, a two-choice bioassay was conducted with each of the following six concentrations: 0.39 mg/g, 0.197 mg/g, 0.098 mg/g, 0.049 mg/g, 0.025 mg/g, and 0.012 mg/g. There were 5 to 7 replicates for each two-choice bioassay. For 9-oxo-decanoic acid, a multiple-choice bioassay was conducted at six concentrations including 0.00 mg/g, 0.124 mg/g, 0.062 mg/g, 0.031 mg/g, 0.016 mg/g, and 0.007 mg/g. There were 11 replicates. For 11-oxo-tridecanoic acid, a multiple-choice bioassay was conducted at five concentrations including 0.00 mg/g, 7.71 mg/g, 3.86 mg/g, 1.93 mg/g, and 0.96 mg/g. There were 6 replicates. For 12-oxo-tetradecanoic acid, a multiple-choice bioassay was conducted at six concentrations including 0.00 mg/g, 1.15 mg/g, 0.58 mg/g, 0.29 mg/g, 0.14 mg/g, and 0.07 mg/g. There were 7 replicates.
The following paired two-choice bioassays were conducted: 1) 10-oxo-dodecanoic acid at 1.14 mg/g vs trans, trans-2,4-heptadienal at 0.19 mg/g; 2) 11-oxo-dodecanoic acid at 1.08 mg/g vs trans, trans-2,4-heptadienal at 0.19 mg/g; 3) 10-oxo-dodecanoic acid at 1.14 mg/g vs 2-ethyl-3,6 (5)-dimethylpyrazine at 0.004 mg/g; 4) 11-oxo-dodecanoic acid at 1.08 mg/g vs 2-ethyl-3,6 (5)-dimethylpyrazine at 0.004 mg/g. The results are shown in Table 2 below, and FIG. 29A to FIG. 29D.

fire ants [2] = test: Field multiple-choice feeding bioassay (soybean oil consumption); assay type: in vivo, Solenopsis invicta; details: for difference among treatments and control in oil consumption / feeding preference on soybean oil (one-way ANOVA): all tested concentrations of each compound in soybean oil, field multiple-choice; for concentration at which the effect on oil consumption was statistically significant compared to the control oil: Tukey's HSD; for effect of different concentrations on oil consumption (one-way ANOVA): first multiple-choice bioassay: 10-oxo 9.09, 4.54, 2.27, 1.14 mg/g, 11-oxo 8.62, 4.31, 2.15, 1.08 mg/g; for concentration at which oil consumption was numerically the highest: multiple-choice bioassay of known attractants
Method: as §1, with “bioassays. For each fatty acid, eight concentrations were tested in two separate multiple-choice bioassays. For 10-oxo-dodecnoic acid, the first set used in the multiple-choice bioassay included concentrations of 0.00 mg/g (control), 9.09 mg/g, 4.54 mg/g, 2.27 mg/g, and 1.14 mg/g, and the second set included 0.00 mg/g, […], 0.28 mg/g, 0.142 mg/g, and 0.07 mg/g. There were seven replicates for each set of bioassay. For 11-oxo-dodecnoic acid, the first set used in the multiple-choice bioassay included concentrations of 0.00 mg/g, 8.62 mg/g, 4.31 mg/g, 2.15 mg/g, and 1.08 mg/g, and the second set included 0.00 mg/g, 0.54 mg/g, 0.27 mg/g, 0.14 mg/g, and 0.07 mg/g. There were six replicates for the first set of bioassay and seven replicates for the second set of bioassay. Five oxo fatty acid analogs were tested in the filed using two-choice or multiple-choice bioassays. Tested were 8-oxo-decanoic acid, 9-oxo-2-decenoic acid, 9-oxo-decanoic acid, 11-oxo-tridecanoic acid, and 12-oxo-tetradecanoic acid. Eight oxo-decanoic acid was tested in a multiple-choice bioassay at 6 different concentrations including 0.00 mg/g, 0.81 mg/g, 0.41 mg/g, 0.20 mg/g, 0.10 mg/g, and 0.05 mg/g. There were 10 replicates for the bioassay. For 9-oxo-2-decenoic acid, a two-choice bioassay was conducted with each of the following six concentrations: 0.39 mg/g, 0.197 mg/g, 0.098 mg/g, 0.049 mg/g, 0.025 mg/g, and 0.012 mg/g. There were 5 to 7 replicates for each two-choice bioassay. For 9-oxo-decanoic acid, a multiple-choice bioassay was conducted at six concentrations including 0.00 mg/g, 0.124 mg/g, 0.062 mg/g, 0.031 mg/g, 0.016 mg/g, and 0.007 mg/g. There were 11 replicates. For 11-oxo-tridecanoic acid, a multiple-choice bioassay was conducted at five concentrations including 0.00 mg/g, 7.71 mg/g, 3.86 mg/g, 1.93 mg/g, and 0.96 mg/g. There were 6 replicates. For 12-oxo-tetradecanoic acid, a multiple-choice bioassay was conducted at six concentrations including 0.00 mg/g, 1.15 mg/g, 0.58 mg/g, 0.29 mg/g, 0.14 mg/g, and 0.07 mg/g. There were 7 replicates.” for “bioassays.”

worker fire ants = test: Attraction bioassay (paired two choice, treated tube vs acetone control); assay type: in vivo, S. invicta; details: individual oxo acids, 20 μl acetone solution: 2.029 mg/ml 10-oxo-dodecanoic acid, 1.96 mg/ml 11-oxo-dodecanoic acid; host tray; 1 hour; paired t test
fire ants [3] = test: Feeding bioassay (laboratory paired two-choice, treated vs untreated soybean oil); assay type: in vivo, S. invicta; details: soybean oil with 1.90 μg/mg 10-oxo-dodecanoic acid, 7.273 μg/mg 11-oxo-dodecanoic acid, or 0.36 μg/mg mixture (38.12%/61.88%) vs untreated oil; 24 hours; paired t test
fire ants [4] = details: Vander Meer et al., 2009; cited from earlier work
[5] = first multiple-choice bioassay (about 1 to 9 mg/g)
[6] = control 0.00 mg/g, field, about 2 hours
[7] = Bioassay 2: 11-oxo-dodecanoic acid 1.08 mg/g vs trans, trans-2,4-heptadienal 0.19 mg/g
[8] = Bioassay 2: 11-oxo-dodecanoic acid at 1.08 mg/g vs trans, trans-2,4-heptadienal at 0.19 mg/g
[9] = Bioassay 4: 11-oxo-dodecanoic acid 1.08 mg/g vs 2-ethyl-3,6 (5)-dimethylpyrazine 0.004 mg/g
[10] = Bioassay 4: 11-oxo-dodecanoic acid at 1.08 mg/g vs 2-ethyl-3,6 (5)-dimethylpyrazine at 0.004 mg/g
[11] = Bioassay 1: 10-oxo-dodecanoic acid 1.14 mg/g vs trans, trans-2,4-heptadienal 0.19 mg/g
[12] = Bioassay 1: 10-oxo-dodecanoic acid at 1.14 mg/g vs trans, trans-2,4-heptadienal at 0.19 mg/g
[13] = Bioassay 3: 10-oxo-dodecanoic acid 1.14 mg/g vs 2-ethyl-3,6 (5)-dimethylpyrazine 0.004 mg/g
[14] = Bioassay 3: 10-oxo-dodecanoic acid at 1.14 mg/g vs 2-ethyl-3,6 (5)-dimethylpyrazine at 0.004 mg/g

CC(=O)CCCCCC=CC(=O)O [9-oxo-2-decenoic acid]
feeding preference of fire ant on soybean oil (fire ants [1]; 0.049 mg/g in soybean oil vs control): significantly improved

CC(=O)CCCCCCCC(=O)O [9-oxo-decanoic acid]
difference among treatments and control in oil consumption / feeding preference on soybean oil (one-way ANOVA) (fire ants [2]): no significant difference

CCC(=O)CCCCCCC(=O)O [8-oxo-decanoic acid]
difference among treatments and control in oil consumption / feeding preference on soybean oil (one-way ANOVA) (fire ants [2]): no significant difference

CC(=O)CCCCCCCCCC(=O)O [11-oxo-dodecanoic acid]
difference in the number of ants between treatment vials and control vials (worker fire ants): significant difference
difference in oil consumption between treatment and control (fire ants [3]): significant difference
most active / most effective concentration (fire ants [2]; dosage bioassays in soybean oil): around 1.08 mg/g
concentration at which the effect on oil consumption was statistically significant compared to the control oil (fire ants [2]; [5]): 1.08 mg/g
effect of different concentrations on oil consumption (one-way ANOVA) (fire ants [2]; [6]): significant effect
effect on oil consumption (one-way ANOVA) (fire ants [2]; second multiple-choice bioassay: 10-oxo 0.51, 0.28, 0.142, 0.07 mg/g, 11-oxo 0.54, 0.27, 0.14, 0.07 mg/g, control 0.00 mg/g, field, about 2 hours): no significant effect
difference in the effect on oil consumption between the two compounds (fire ants [1]; [7]): no significant difference
Mean oil consumption (fire ants [1]; [8]): 21.23 mg
difference in the effect on oil consumption between the two compounds (fire ants [1]; [9]): significant difference
Mean oil consumption (fire ants [1]; [10]): 15.8 mg

CCC(=O)CCCCCCCCCCC(=O)O [12-oxo-tetradecanoic acid]
difference among treatments and control in oil consumption / feeding preference on soybean oil (one-way ANOVA) (fire ants [2]): no significant difference

CCC(=O)CCCCCCCCC(=O)O [10-oxo-dodecanoic acid]
difference in the number of ants between treatment vials and control vials (worker fire ants): significant
difference in oil consumption between treatment and control (fire ants [3]): significant
concentration at which the effect on oil consumption was statistically significant compared to the control oil (fire ants [2]; [5]): 1.14 mg/g
effect of different concentrations on oil consumption (one-way ANOVA) (fire ants [2]; [6]): significant effect
concentration at which the effect on oil consumption was statistically significant compared to the control oil (fire ants [2]; second multiple-choice bioassay (0.07 to about 0.5 mg/g)): 0.51 mg/g
difference in the effect on oil consumption between the two compounds (fire ants [1]; [11]): no significant difference
Mean oil consumption (fire ants [1]; [12]): 23.84 mg
difference in the effect on oil consumption between the two compounds (fire ants [1]; [13]): significant difference
Mean oil consumption (fire ants [1]; [14]): 12.69 mg

CC/C=C/C=C/C=O [trans, trans-2,4-heptadienal, reference compound]
difference among treatments and control in oil consumption / feeding preference on soybean oil (one-way ANOVA) (fire ants [2]): did not significantly improve; also recorded: not significantly different
concentration at which oil consumption was numerically the highest (fire ants [2]): 0.19 mg/g
difference in the effect on oil consumption between the two compounds (fire ants [1]; [11]): no significant difference
Mean oil consumption (fire ants [1]; [12]): 22.83 mg
difference in the effect on oil consumption between the two compounds (fire ants [1]; [7]): no significant difference
Mean oil consumption (fire ants [1]; [8]): 19.95 mg

CCC(=O)CCCCCCCCCC(=O)O [11-oxo-tridecanoic acid]
difference among treatments and control in oil consumption / feeding preference on soybean oil (one-way ANOVA) (fire ants [2]): no significant difference

2-ethyl-3,6 (5)-dimethylpyrazine [reference compound]
difference among treatments and control in oil consumption / feeding preference on soybean oil (one-way ANOVA) (fire ants [2]): significant difference
concentration at which oil consumption was numerically the highest (fire ants [2]): 0.004 mg/g
concentration that significantly improved the feeding preference of fire ant on soybean oil (fire ants [2]; multiple-choice, 0.064 to 0.002 mg/g tested): 0.002 mg/g and 0.004 mg/g
difference in the effect on oil consumption between the two compounds (fire ants [1]; [13]): significantly higher oil consumption
Mean oil consumption (fire ants [1]; [14]): 19.53 mg
difference in the effect on oil consumption between the two compounds (fire ants [1]; [9]): significantly higher oil consumption
Mean oil consumption (fire ants [1]; [10]): 21.75 mg
concentration mostly preferred by fire ants (fire ants [4]): 30 ng/µL
